pIC50: −log10 of the molar value. Converted amounts (≈) assume the structure as drawn. Where two headings read alike, the source gives them in different places.

The subject of assay [1] is Staphylococcus aureus 101. The assay can be described thus: MIC against Staphylococcus aureus 101. Format: cell-based. To be noted: Staphylococcus aureus 101, MRSA- and trimethoprim-resistant, clinical isolate; for MIC: read-out: MIC Sa101.
Assay [2] addresses T1, purified DHFR of strain Sp1/1 of Streptococcus pneumoniae (Streptococcus pneumoniae serotype 4, UniProt Q54801).
T1 sequence (Q54801 1-168 I100L): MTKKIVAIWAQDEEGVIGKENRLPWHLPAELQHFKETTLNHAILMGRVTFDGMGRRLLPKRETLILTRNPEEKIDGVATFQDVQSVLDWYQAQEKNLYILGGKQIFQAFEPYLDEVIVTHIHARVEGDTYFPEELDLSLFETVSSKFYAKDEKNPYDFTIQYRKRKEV
It counts as biochemical.

Assay [3] concerns Streptococcus pneumoniae 1/1. The assay can be described thus: MIC against Streptococcus pneumoniae 1/1. Format: cell-based. To be noted: Streptococcus pneumoniae 1/1, trimethoprim- and penicillin-resistant, serotype 6, clinical isolate; for MIC: read-out: MIC Sp1/1.
The target in assay [4] is purified DHFR of strain 157/4696 of Staphylococcus aureus (Staphylococcus aureus, UniProt P13955). As to the kind of experiment: biochemical.
The mark [5] stands for this setting: Table 2, IC50 against purified DHFR of strain Sp1/1.
Where [6] appears, read: Table 2, IC50 against purified DHFR of strain 157/4696 (highly trimethoprim-resistant; clinical isolate), read-out: DHFR Sa1.

purified DHFR of strain 157/4696 of Staphylococcus aureus, sequence (P13955 whole entry): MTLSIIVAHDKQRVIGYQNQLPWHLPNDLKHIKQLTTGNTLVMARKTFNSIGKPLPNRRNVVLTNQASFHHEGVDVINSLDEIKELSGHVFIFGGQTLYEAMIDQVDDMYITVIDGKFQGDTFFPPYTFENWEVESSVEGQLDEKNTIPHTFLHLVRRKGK

On to “5-[2-Cyclopropylmethyl-6-ethoxy-4′-(2-morpholin-4-yl-ethoxy)-biphenyl-4-ylmethyl]-pyrimidine-2,4-diamine [Example 56-]”, for which, in assay [1] (Table 2), the “MIC Sa101” value was found to be 8 µg/mL. Moreover, the pIC50 in assay [2] (setting [5]) is 7.49; in assay [4] (setting [6]) it was 6.10. Moreover, in assay [3] (Table 2), the “MIC Sp1/1” value came to 2 µg/mL.

With “5-[4′-Amino-2-[(2-tetrahydropyran-4-yl)-ethoxy]-6-ethoxy-4′-methyl-biphenyl-4-ylmethyl]-pyrimidine-2,4-diamine [Example 11-b]”, in assay [1] (Table 2), the “MIC Sa101” value was determined as 8 µg/mL. In addition, the pIC50 in assay [2] (setting [5]) was 8.01; in assay [4] (setting [6]), 6.05. For the same compound, the “MIC Sp1/1” value in assay [3] (Table 2) was 1 µg/mL.

Turning to `CCOc1cc(Cc2cnc(N)nc2N)cc(OCC)c1-c1ccc([S+](C)[O-])cc1` (racemic) [Example 02-j, (RS)-5-(2,6-Diethoxy-4′-methanesulphinyl-biphenyl-4-ylmetyl)-pyrimidine-2,4-diamine], the MIC in assay [1] (Table 2) is 8 µg/mL (≈ 18.8 µM); in assay [3] (Table 2) it was 4 µg/mL (≈ 9.38 µM). In addition, the figures for the pIC50 in assay [2] (setting [5]) and in assay [4] were 7.14 and 5.77, respectively.

On to `CCOc1cc(Cc2cnc(N)nc2N)cc(OCC)c1-c1ccc(N2CC(COC)OC2=O)cc1` (racemic) [Example 04-s, (RS)-3-[4′-(2,4-Diamino-pyrimidin-5-ylmethyl)-2′,6′-diethoxy-biphenyl-4-yl]-5-methoxymethyl-oxazolidin-2-one], for which the figures for the MIC in assay [1] (Table 2) and in assay [3] (Table 2) were 8 µg/mL (≈ 16.2 µM) and 4 µg/mL (≈ 8.1 µM), respectively. In addition, the pIC50 in assay [2] (setting [5]) was 7.21; in assay [4], 5.72.

As for `CCOc1cc(Cc2cnc(N)nc2N)cc(OCCC2CCCCO2)c1-c1cccc(N)c1` (racemic) [Example 07-h, (RS)-5-[3′-Amino-6-ethoxy-2-[2-(tetrahydro-pyran-2-yl)-ethoxy]-biphenyl-4-ylmethyl]-2yrimidine-2,4-diamine], the MIC is 8 µg/mL (≈ 17.3 µM) in assay [1] (Table 2) and 2 µg/mL (≈ 4.31 µM) in assay [3] (Table 2). Moreover, the pIC50 in assay [2] (setting [5]) was 7.57; in assay [4], 5.66.

As to `CCOc1cc(Cc2cnc(N)nc2N)cc(OCCC2CCCCO2)c1-c1ccc(O)cc1` (racemic) [Example 08-t, (RS)-4′-(2,4-Diamino-pyrimidin-5-ylmethyl)-6′-ethoxy-2′-[2-(tetrahydro-pyran-2-yl)-ethoxy]-biphenyl-4-ol], the MIC in assay [1] (Table 2) was determined as 8 µg/mL (≈ 17.2 µM); in assay [3] (Table 2) it was 2 µg/mL (≈ 4.31 µM). The results for the pIC50 in assay [2] (setting [5]) and in assay [4] were 7.60 and 5.62, respectively.

In the case of `CCOc1cc(Cc2cnc(N)nc2N)cc(O[C@@H]2CCC[C@H]2CC#N)c1-c1ccc(O)cc1` (racemic) [Example 08-u, rac-(E)-{2-[4-(2,4-Diamino-pyrimidin-5-ylmethyl)-6-ethoxy-4′-hydroxy-biphenyl-2-yloxy]-cyclopentyl}-acetonitrile], in assay [1] (Table 2), the “MIC Sa101” value stood at 8 µg/mL (≈ 17.4 µM). In addition, the pIC50 in assay [2] (setting [5]) is 6.82; in assay [4] (setting [6]), 5.74. Further, the “MIC Sp1/1” value in assay [3] (Table 2) was 4 µg/mL (≈ 8.7 µM).

For the compound `CCOc1cc(Cc2cnc(N)nc2N)cc(OC2CCCC2COC)c1-c1ccc(O)cc1` (racemic) [Example 08-v, rac-(E)-5-[6-Ethoxy-4′-hydroxy-2-(2-methoxymethyl-cyclopentyloxy)-biphenyl-4-ylmethyl]-pyrimidine-2,4-diamine], the MIC in assay [1] (Table 2) is 8 µg/mL (≈ 17.2 µM); in assay [3] (Table 2) it was 2 µg/mL (≈ 4.31 µM). For the same compound, the results for the pIC50 in assay [2] (setting [5]) and in assay [4] were 7.09 and 5.82, respectively.

For `CCOc1cc(Cc2cnc(N)nc2N)cc(O[C@@H]2CCC[C@H]2OC)c1-c1ccc(O)cc1` (relative stereo) [Example 08-y, 5-[6-Ethoxy-2((trans)-2-methoxy-cyclopentyloxy)-4′-hydroxy-biphenyl-4-ylmethtl]-pyrimidine-2,4-diamine], the MIC in assay [1] (Table 2) was found to be 8 µg/mL (≈ 17.8 µM); in assay [3] (Table 2), 4 µg/mL (≈ 8.88 µM). Further, the pIC50 in assay [2] (setting [5]) is 7.02; in assay [4] it was 5.57.

Regarding `CCOc1cc(Cc2cnc(N)nc2N)cc(OCC)c1-n1cccc1` [Epiroprim, reference compound], the results for the MIC in assay [1] (Table 1) and in assay [3] (Table 1) were 16 µg/mL (≈ 45.3 µM) and 4 µg/mL (≈ 11.3 µM), respectively. The “MIC Sa101” value in assay [1] (Table 2) was 16 µg/mL (≈ 45.3 µM). Also, the pIC50 in assay [2] was 6.72. In assay [3] (Table 2), the “MIC Sp1/1” value came out at 4 µg/mL (≈ 11.3 µM).

On to `CCOc1cc(Cc2cnc(N)nc2N)cc(OCC)c1-c1ccc(OC)c(COC)c1` [Example 02-aa, 5-(2,6-Diethoxy-4′-methoxy-3′-methoxymethyl-biphenyl-4-ylmethyl)-pyrimidine-2,4-diamine], for which the MIC in assay [1] (Table 2) was 8 µg/mL (≈ 18.2 µM); in assay [3] (Table 2), 4 µg/mL (≈ 9.12 µM). Moreover, the values for the pIC50 in assay [2] (setting [5]) and in assay [4] were 7.22 and 5.60, respectively.

With `CCOc1cc(Cc2cnc(N)nc2N)cc(OCC)c1-c1ccc(CO)s1` [Example 02-ab, [5-[4-(2,4-Diamino-pyrimidin-5-ylmethyl)-2,6-diethoxy-phenyl]-thiophen-2-yl]-methanol], the MIC in assay [1] (Table 2) was determined as 4 µg/mL (≈ 9.99 µM); in assay [3] (Table 2), 2 µg/mL (≈ 4.99 µM). In addition, the pIC50 in assay [2] (setting [5]) is 7.42; in assay [4], 6.06.

As for `CCOc1cc(Cc2cnc(N)nc2N)cc(OCC)c1-c1ccc(CN2CCOCC2)s1` [Example 02-ac, 5-f3,5-Diethoxy-4-(5-morpholin-4-ylmethyl-thiophen-2-yl)-benzyl-pyrimidine-2,4-diamine], the MIC in assay [1] (Table 2) turned out to be 8 µg/mL (≈ 17 µM); in assay [3] (Table 2) it was 2 µg/mL (≈ 4.26 µM). Also, the results for the pIC50 in assay [2] (setting [5]) and in assay [4] were 7.19 and 6.19, respectively.

In the case of `CCOc1cc(Cc2cnc(N)nc2N)cc(OCC)c1-c1ccc(C)c(N)c1` [Example 02-ad, 5-(3′-Amino-2,6-diethoxy-4′-methyl-biphenyl-4-ylmethyl)-pyrimidine-2,4-diamine], the figures for the MIC in assay [1] (Table 2) and in assay [3] (Table 2) were 8 µg/mL (≈ 20.3 µM) and 4 µg/mL (≈ 10.2 µM), respectively. In addition, the pIC50 in assay [2] (setting [5]) was 7.07; in assay [4], 5.70.

In the case of `CCOc1cc(Cc2cnc(N)nc2N)cc(OCC)c1-c1ccc(O)c(F)c1` [Example 02-ae, 4′-(2,4-Diamino-pyrimidin-5-ylmethyl)-2′,6′-diethoxy-3-fluoro-biphenyl-4-ol], the MIC in assay [1] (Table 2) is 4 µg/mL (≈ 10 µM); in assay [3] (Table 2) it was 8 µg/mL (≈ 20.1 µM). The pIC50 in assay [2] (setting [5]) was 6.82; in assay [4], 5.80.

Turning to `CCOc1cc(Cc2cnc(N)nc2N)cc(OCC)c1-c1cccc(S(C)(=O)=O)c1` [Example 02-af, 5-(2,6-Diethoxy-3′-methylsulphonyl-biphenyl-4-ylmethyl)-pyrimidine-2,4-diamine], the MIC in assay [1] (Table 2) and in assay [3] (Table 2) was 8 µg/mL (≈ 18.1 µM) throughout. Moreover, the values for the pIC50 in assay [2] (setting [5]) and in assay [4] were 7.07 and 5.74, respectively.

As to `CCOc1cc(Cc2cnc(N)nc2N)cc(OCC)c1-c1ccc(C=O)cc1` [Example 02-ag, 4′-(2,4-Diamino-pyrimidin-5-ylmetyl)-2′,6′-diethoxy-biphenyl-4-carbaldehyde], the MIC in assay [1] (Table 2) and in assay [3] (Table 2) was 8 µg/mL (≈ 20.4 µM) each time. Also, the values for the pIC50 in assay [2] (setting [5]) and in assay [4] were 6.89 and 5.66, respectively.

Consider `CCOc1cc(Cc2cnc(N)nc2N)cc(OCC)c1-c1ccc2[nH]ccc2c1` [Example 02-d, 5-(3,5-Diethoxy-4-(1H-indol-5-yl)-benzyl)-pyrimidine-2,4-diamine], for which the MIC was determined as 8 µg/mL (≈ 19.8 µM) in assay [1] (Table 2) and 1 µg/mL (≈ 2.48 µM) in assay [3] (Table 2). Besides, the pIC50 was 7.46 in assay [2] (setting [5]) and 5.85 in assay [4].

Consider `CCOc1cc(Cc2cnc(N)nc2N)cc(OCC)c1-c1ccc2cc[nH]c2c1` [Example 02-e, 5-[3,5-Diethoxy-4-(1H-indol-6-yl)-benzl]-pyrimidine-2,4-diamine], for which the MIC was 4 µg/mL (≈ 9.91 µM) in assay [1] (Table 2) and 2 µg/mL (≈ 4.96 µM) in assay [3] (Table 2). Also, the pIC50 is 7.66 in assay [2] (setting [5]) and 6.00 in assay [4].

Turning to `CCOc1cc(Cc2cnc(N)nc2N)cc(OCC)c1-c1ccc2cc(O)ccc2c1` [Example 02-f, 6-[4-(2,4-Diamino-pyrimidin-5-ylmethyl)-2,6-diethoxy-phenyl]-naphthalen-2-ol], the MIC in assay [1] (Table 2) and in assay [3] (Table 2) was 4 µg/mL (≈ 9.29 µM) throughout. Besides, the pIC50 in assay [2] (setting [5]) is 7.55; in assay [4], 5.77.

In the case of `CCOc1cc(Cc2cnc(N)nc2N)cc(OCC)c1-c1ccc2[nH]ncc2c1` [Example 02-g, 5-[3,5-Diethoxy-4-(1H-indazol-5-yl)-benzyl]-pyrimidine-2,4-diamine], the MIC in assay [1] (Table 2) came out at 8 µg/mL (≈ 19.8 µM); in assay [3] (Table 2), 2 µg/mL (≈ 4.94 µM). Besides, the pIC50 in assay [2] (setting [5]) is 7.92; in assay [4], 6.19.

As for `CCOc1cc(Cc2cnc(N)nc2N)cc(OCC)c1-c1ccc(NC(C)=O)cc1` [Example 04-p, N-[4′-(2,4-Diamino-pyrimidin-5-ylmethl)-2′,6′-diethoxy-biphen-4-yl]-acetamide], the “MIC Sa101” value in assay [1] (Table 2) turned out to be 8 µg/mL (≈ 19 µM). Also, in assay [3] (Table 2), the “MIC Sp1/1” value was 2 µg/mL (≈ 4.74 µM).

In the case of `CCOc1cc(Cc2cnc(N)nc2N)cc(OCC2(CC#N)CC2)c1-c1ccc(OC)cc1` [Example 09-b], the values for the MIC in assay [1] (Table 2) and in assay [3] (Table 2) were 8 µg/mL (≈ 17.4 µM) and 2 µg/mL (≈ 4.35 µM), respectively. In assay [4], this compound had a pIC50 of 5.72.

As to `COc1cc(Cc2cnc(N)nc2N)cc(OC)c1OC` [Trimethoprim, reference compound], the MIC is 32 µg/mL (≈ 110 µM) in assay [1] (Table 1) and more than 32 µg/mL in assay [3] (Table 1). In addition, the “MIC Sa101” value in assay [1] (Table 2) amounted to 32 µg/mL (≈ 110 µM). In addition, the “MIC Sp1/1” value in assay [3] (Table 2) was more than 32 µg/mL.
